Measured values reported in patent US12342842B2, “Preparation for use in enhancing formation of short-chain fatty acids (SCFAs)” (Evonik Operations GmbH, priority 2019, dated 2025).

Legend:
human colonic microbiota [1] = test: I-screen fermentation, SCFA analysis with omega-3 amino acid salts, FFA and amino acids (Examples 5 and 6); type: cell-based; conditions: salts 1.4 mg/ml; for Iso-butyrate / Iso-valerate: 24 h in SIEM, FFA 0.95 mg/ml, amino acids 0.5 mg/ml, means of triplicates; for Iso-butyrate: control 1.21; for Iso-valerate: control 2.74; for Propionate/acetate ratio / Propionate / Acetate: FFA 0.96 mg/ml, L-lysine 0.49, L-arginine 0.52, L-ornithine 0.5 mg/ml; for Propionate/acetate ratio: control 0.48; for Propionate: control 7.37; for Acetate: control 15.21
human colonic microbiota [2] = test: I-screen intestinal screening model, microbiota composition by V4 16S rRNA gene sequencing (Example 1); type: cell-based; conditions: omega-3-lys, EE, fish oil 1.4 mg/ml, inulin 4 mg/ml, means of triplicates
Text: To determine the effect of omega-3 compounds on adult colonic microbiota, an intestinal screening model was used (I-screen, TNO, the Netherlands), which corresponds to colonic environment. A translation of such in vitro experiment towards an application in a living organism (animal or human) requires the use of a colon-specific delivery form to circumvent absorption of fatty acids in upper parts of the gastrointestinal tract. The use of compositions comprising omega-3 compounds in formulations enabling a colon-specific delivery is part of the present invention. […]
The microbiota composition was analyzed by 16S rRNA gene amplicon sequencing of the V4 hypervariable region. […]
The amount of bacterial DNA in the i-screen DNA samples was determined by quantitative polymerase chain reaction (qPCR) using primers specific for the bacterial 16S rRNA gene: Forward primer: CGAAAGCGTGGGGAGCAAA; Reverse primer: GTTCGTACTCCCCAGGCGG; Probe: 6FAM-[…]-MGB.
Subsequently, PCR amplicons of the V4 hypervariable region of the 16S rRNA gene were generated for the individual samples by amplification of 500 pg of DNA as described by Kozich et al. (2013), using F515/R806 primers (Caporaso et al. 2011). […] The amount of amplified DNA per sample was quantified using the dsDNA 910 Reagent Kit on the Fragment Analyzer (Advanced Analytical). […]

Row | Molecule | Iso-butyrate (human colonic microbiota [1]) | Iso-valerate (human colonic microbiota [1]) | Propionate/acetate ratio (human colonic microbiota [1]) | Propionate (human colonic microbiota [1]) | Acetate (human colonic microbiota [1]) | Effect on colonic microbiota after 24 h incubation (variance explained versus control) (human colonic microbiota [2])
1 | N=C(N)NCCC[C@H](N)C(=O)O [Arg, L-arginine] | 1.21 mM | 3.71 mM | 0.40 | 9.39 mM | 23.50 mM | –
2 | inulin | – | – | – | – | – | 40.2%
3 | NCCCC[C@H](N)C(=O)O [Lys, L-lysine] | 1.47 mM | 3.57 mM | 0.40 | 9.49 mM | 24.03 mM | –
4 | NCCC[C@H](N)C(=O)O [Orn, L-ornithine] | 1.37 mM | 3.31 mM | 0.36 | 9.11 mM | 25.36 mM | –
